Data from a melting point compilation (Tetko et al.; mined from patent text by program, amines drawn as free bases though some values may be those of a salt).

Row | Compound | melting point [°C]
1 | NC(=O)c1c(F)ccc(OCc2ccc3sccc3c2)c1F | 146 to 148
2 | COc1ccc(C(=NO)c2cc(F)ccc2F)c(O)c1Cl | 209 to 210
3 | Cc1c(-c2ccccc2)oc2c(S(=O)(=O)Cl)cccc2c1=O | 165 to 170
4 | COC(=O)c1ccc(NN)c(Cl)c1 | 120
5 | CC(C)c1ccccc1S(=O)(=O)c1ccc(O)cc1 | 160
6 | N#Cc1ccc(CCc2n[nH]c3c2c(=O)n(-c2ccccc2)c2ncccc32)cc1 | 267 to 269
7 | Cc1cc(C(=O)c2ccc(C(=O)c3cc(C)c(OCC4CO4)c(C)c3)cc2)cc(C)c1OCC1CO1 (stereo not drawn) | 164 to 170
8 | c1ccc2oc(-c3ccncc3)nc2c1 | 129 to 131
9 | COC(=O)c1cc(SC(F)(F)F)c(-c2ccc(Cl)cc2)[nH]1 | 133 to 137
10 | O=C(O)c1ccc(CCCc2c(CCNS(=O)(=O)Cc3ccc(Cl)c(Cl)c3)n(C(c3ccccc3)c3ccccc3)c3ccc(Cl)cc23)cc1 | 190
11 | O=C(Cc1ccccc1)N1CCC2(Cc3ccccc3O2)C1 (stereo not drawn) | 98 to 99
12 | OC(c1ccccc1)c1nnnn1Cc1ccccc1 (stereo not drawn) | 81
13 | O=C(NCCO)c1cccc(-c2cc3c(ccn3Cc3ccc(Cl)cc3Cl)cn2)c1 | 198 to 199
14 | COc1c(-c2ccc3cc(NS(C)(=O)=O)ccc3c2)cc(N2CCNC2=O)cc1C(C)(C)C | 284 to 286
15 | CC1c2ccccc2-c2ccc(F)cc2N1S(=O)(=O)c1ccc(O)cc1 (stereo not drawn) | 162 to 165
16 | Fc1cccc2c(CCc3ccsc3)ccnc12 | 96 to 97
17 | CCCCCCCCCCCCCCCCCC(CCCCCCCCCCCCCCCCC)=NO | 66 to 67
18 | CCC(CC)c1nn(-c2ccc(C(F)(F)F)cn2)cc1CCCOc1c(C)cccc1CC(=O)O | 125 to 126
19 | O=C1C(=Cc2ccc(Cl)s2)CCc2cc(OCCn3ccnc3)ccc21 | 143 to 144

Row | Compound | melting point [°C]
20 | O=Cc1ccc(-c2ccc3ncnc(Nc4ccc(OCc5cccc(F)c5)c(Cl)c4)c3c2)cc1 | 237 to 238
21 | O=C(O)c1ccccc1COc1ccc(CCCO)cc1 | 139 to 140
22 | CC(CCc1c[nH]c2c(F)cc(F)cc12)N(CC1CC1)C1COc2c(F)ccc(C(N)=O)c2C1 (stereo not drawn) | 175 to 180
23 | COC(=O)c1cc(OC)ccc1Oc1cc(Cl)ccc1[N+](=O)[O-] | 114 to 116
24 | CC(=O)Nc1c(C(=O)c2cccc(C)c2)[nH]c2cc(Cl)ccc12 | 96 to 100
25 | COc1ccc2nc3ccc(C(C)=O)cn3c(=O)c2c1 | 194 to 196
26 | CCC(C(=O)c1ccc(Cl)cc1)n1ncn(-c2ccc(N3CCN(c4nc5ccccc5s4)CC3)cc2)c1=O (stereo not drawn) | 162
27 | Cc1cc(C(=O)OC(C)(C)C)c(NC(=O)Nc2ccc(Oc3ccccc3)cc2)s1 | 130 to 132
28 | O=C(O)c1ccc(-c2ccccc2OC2OC(CO)C(O)C(O)C2O)cc1 (stereo not drawn) | 248 to 249
29 | CC(=NOCc1ccccc1)C(C)Oc1ccccc1NC(=O)c1cccnc1Cl (stereo not drawn) | 53 to 55
30 | CN1C(=S)N(c2ccc(C#N)c(C(F)(F)F)c2)C(=O)C12CCCC2 | 162 to 163
31 | CC(C)OC1CCC(=O)N1S(=O)(=O)C=Cc1ccccc1 (stereo not drawn) | 92 to 94
32 | CC1(C)CC(=C(c2ccc(O)cc2)c2ccc(-c3ccccc3C(=O)O)cc2)CC(C)(C)C1 | 230 to 231
33 | O=C(O)CCS(=O)(=O)CCCl | 138 to 139
34 | CCCCOCCC(C)CCCC(C)(C)c1cc(O)c(C(C)(C)CCCC(C)CCOCCCC)cc1O (stereo not drawn) | 86 to 89
35 | CCCCc1nc2sc(C(=O)O)cc2n1Cc1ccc(-c2ccccc2C(=O)O)cc1 | 264
36 | CSc1ccc(C(=O)c2cc(-c3cccnc3)c(N3CCOCC3)s2)cc1 | 127
37 | CN1Cc2cccnc2C(N2CC[N+]([O-])(C(=O)Cc3ccncc3)CC2)c2ccc(Cl)cc21 (stereo not drawn) | 115 to 118
38 | CCCCCCCCCCCCc1nnn(C(C(=O)O)c2ccccc2)n1 (stereo not drawn) | 76 to 78

Row | Compound | melting point [°C]
39 | O=C(O)c1cccc2cc(Sc3cc(Cl)ncn3)ccc12 | 209
40 | C=C(C)Cn1c(=O)n(C)c(=O)c2c(SCCCO)n(Cc3cccc4ccccc34)nc21 | 138 to 139
41 | CC1(C)C(=O)Nc2ccc(-c3cc(F)cc([N+](=O)[O-])c3)cc21 | 231 to 233
42 | CC(C)n1cc(-c2c(-c3ccccc3F)nn3ccncc23)ccc1=O | 150 to 151
43 | COc1ccc(/C=C/C=C/C(=O)Oc2ccc([N+](=O)[O-])cc2)cc1 | 176 to 177
44 | CCC(=O)OCC(=O)C1(OC(=O)c2ccccc2)CCC2C3CC(C)C4=CC(=O)C=CC4(C)C3C(O)CC21C (stereo not drawn) | 241
45 | CNC(=O)c1ccccc1Nc1nc(Nc2cc3c(cc2OC)CC(=O)N(CCCN2CCOCC2)CC3)ncc1Cl | 92 to 100
46 | CC1(C)CC(=O)c2c(C(=O)Nc3ccsc3)c[nH]c2C1 | 217 to 218
47 | Cc1c(C)c2c(c(Cl)c1C=O)OCC2 | 129
48 | C#CCCCn1ncc2c(N)c(C(=O)OCC=C)c(C)nc21 | 99.5
49 | COC(=O)c1ccc(C#CCc2cccc3c2SCCC3(C)C)cc1 | 92
50 | O=c1cc2c(nn1Cc1ccc(Cl)cc1)-c1ccccc1S(=O)CC2 (stereo not drawn) | 207 to 209
51 | O=C(O)c1cc2ccc(Cl)cc2[nH]c1=O | 317 to 318
52 | COC(=O)C1=C(O)c2sc3ccccc3c2S(=O)(=O)N1 | 240 to 242
53 | CCCOc1cc(-c2ccc3cc4c(cc3c2)C(C)(C)CCC4(C)C)ccc1C(=O)O | 137 to 138
54 | SCC1CSC2(SCCS2)S1 (stereo not drawn) | 79 to 80.5
55 | O=c1c2cccnc2c(-c2cccc(Cl)c2)cn1Cc1cccs1 | 142 to 145
56 | Cc1nc(-c2ccc(NCC(=O)O)cc2)no1 | 178 to 181

Further lines, results first:

Row | melting point [°C] | Compound
57 | 333 to 335 | O=c1c2c[nH]c3c(c-2nn1-c1ccc(Cl)cc1)CC(c1ccccc1)CC3 (stereo not drawn)
58 | 159 to 160 | COC(=O)c1ccc(CCN(C)c2cn([C@H]3CCc4c(F)cc(F)cc4C3)c(=S)[nH]2)cc1
59 | 213 to 216 | O=[N+]([O-])c1ccc(N2CCN(c3ccncc3)CC2)cc1
60 | 96 to 98 | CCNC(=O)c1c([Si](C)(C)C)ccc(Cl)c1Cl
61 | 142 to 144 | O=S(=O)(c1ccccc1)S(=O)(=O)c1ccccc1
62 | 93.5 to 95.5 | CC(C)c1nc(C(C)C)c(CN2CCOCC2)c(-c2ccc(F)cc2)c1CO
63 | 188 to 189 | CCCCCCCCCCNC(=O)c1cc(N)cc(C(=O)NCCCCCCCCCC)c1
64 | 122 to 123 | O=[N+]([O-])c1cc(C(F)(F)F)ccc1C1(O)CC=NO1 (stereo not drawn)
65 | 149 to 152 | COc1ccc(N2C(=O)[C@H](O)[C@H]2c2ccco2)cc1
66 | 210 | CC(CCNC(=O)c1cc2cc(Cl)ccc2[nH]1)n1ccnc1 (stereo not drawn)
67 | 76.5 to 78.5 | C=CC(=O)Nc1cccc2cccnc12
68 | 94 to 96 | O=c1n(CCCN2CCN(c3ccccc3)CC2)nc2n1-c1ccccc1OC2
69 | 142 to 143 | O=[N+]([O-])c1cn2c(n1)OC(COc1ccc(N3CCC(Cc4cc5cc(OC(F)(F)F)ccc5o4)CC3)cc1)CC2 (stereo not drawn)
70 | 158 | O=c1c(Cl)c(Cl)cnn1-c1ccc(Cl)cc1F
71 | 111 to 114 | CN(C)C=Cc1ccc([N+](=O)[O-])c(OCc2ccccc2)c1
72 | 132 to 135 | CC(C)COc1nc(N)c2ncn(C3C=CCCC3)c2n1 (stereo not drawn)
73 | 38 | O=C(O)c1cc(NCc2c(F)c(F)c(C(F)(F)F)c(F)c2F)ccc1OC(F)(F)F
74 | 164 to 166 | CC(C)=CCCNC(=S)Nc1nc(C)cs1
75 | 179 to 181 | O=C(NCCc1ccc(O)cc1)c1cccnc1
76 | 190 | O=C1c2ccccc2C(=O)N1Oc1ccc([N+](=O)[O-])cc1C(F)(F)F
77 | 101 to 104 | COc1ccc(C2=NN(Cc3ccccc3Cl)C(=O)[C@H]3CCCC[C@@H]23)cc1OC (relative stereo)

Row | melting point [°C] | Compound
78 | 205 to 220 | CC(C)(C)c1nc(C=NO)ncc1O
79 | 149 to 150 | COc1ccc(Cn2cnc3c(-c4ccco4)nc(C(F)(F)F)nc32)cc1
80 | 152 to 153 | CNc1nc(C)c(-c2cccnc2)s1
81 | 230 to 231 | O=C1NC(=O)c2ccc(I)cc2/C1=C/NCc1ccc(-n2cccc2)c(O)c1
82 | 111 to 112 | CCCCC(=O)N(Cc1ccc2c(c1)c1ccccc1n2CCc1nnn[nH]1)C(C(=O)O)C(C)C (stereo not drawn)
83 | 197 to 199 | COc1ccc(-c2ccc(C(=O)CCC(=O)O)cc2)cc1
84 | 107 to 110 | O[C@@H](CNCCOc1ccc2oc(-c3ccon3)cc2c1)COc1ccccc1
85 | 123 to 126 | CCCCCS(=O)(=O)NC(=O)CCc1ccc(OCCN2CCCC2=O)cc1Oc1ncc(C(F)(F)F)cc1Cl
86 | 230 | CN(C)C(=O)Nc1cccc(-c2nc(=O)c3ccccc3s2)n1
87 | 149 to 151 | C=CC(=O)NCc1c(-c2ccccc2)noc1C
88 | 178 | CS(=O)(=O)N1CCN(C(=O)Cl)C1=O
89 | 305 to 307 | O=c1[nH]c2ncc(-c3cccc(-c4nc[nH]n4)c3)nc2n1CC1CCCCC1
90 | 162 to 164 | COc1cc2c(Nc3ccc(Sc4nccn4C)c(Cl)c3)c(C#N)cnc2cc1-c1csc(CN2CCN(C)CC2)c1
91 | 167 | Cc1cc2cc(Nc3ccnc4cc(-c5ccc(CNCCCN(C)C)cc5)sc34)ccc2[nH]1
92 | > 250 | CCc1ccc(Nc2nc3cc(NC(=O)c4cc(OC)c(OC)c(OC)c4)ccc3o2)cc1
93 | 120 to 121 | COCc1nc(-c2ccc(C(F)(F)F)cc2)ncc1COc1ccc(OC(C)(C)C(=O)O)c(C)c1
94 | 122 to 125 | CC1CC(=O)C2OCC1O2 (stereo not drawn)
95 | 68 to 70 | CCCCCCOc1ccccc1C(=N)OCC
96 | 109 | CN(C)C(=O)C1Oc2ccc([N+](=O)[O-])cc2O1 (stereo not drawn)
97 | 93.8 to 95.7 | CCc1nc(OCc2ccc(Oc3ccc(C(F)(F)F)cc3)cc2)c(C)c(=O)n1CC
98 | 142 to 145 | CCOC(=O)COc1ccc(CCNC(=O)C[C@H]2O[C@H](c3cccc(OC)c3OC)c3cc(Cl)ccc3N(CC(C)(C)CO)C2=O)cc1
